PubChem BioAssay (NCI)
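Cultured in 96-well plates, cells were exposed to test compound for 48 hours across five concentrations. GI50 is the concentration that inhibits growth by half. TGI denotes the concentration required for complete inhibition of growth.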

Legend:
Test in all cases: inhibition of tumour cell growth, NCI panel, 48 h
[1] = system: SK-MEL-5 melanoma
[2] = system: SR leukemia
[3] = system: NCI-H522 lung
[4] = system: BT-549 breast
[5] = system: SW-620 colon
[6] = system: MALME-3M melanoma
[7] = system: M14 melanoma
[8] = system: A498 renal
[9] = system: HOP-92 NSCLC
[10] = system: SNB-75 CNS
[11] = system: NCI/ADR-RES ovarian
[12] = system: OVCAR-5 ovarian
[13] = system: SK-OV-3 ovarian
[14] = system: HS 578T breast
[15] = system: SF-295 CNS
[16] = system: SN12C renal
[17] = system: COLO 205 colon
[18] = system: KM12 colon
[19] = system: CCRF-CEM leukemia
[20] = system: HCT-116 colon
[21] = system: UO-31 renal
[22] = system: RXF 393 renal
[23] = system: SK-MEL-2 melanoma
[24] = system: SF-268 CNS
[25] = system: NCI-H226 lung
[26] = system: A549 NSCLC
[27] = system: LOX IMVI melanoma
[28] = system: NCI-H460 lung
[29] = system: PC-3 prostate
[30] = system: K-562 leukemia
[31] = system: MDA-MB-231 breast
[32] = system: SF-539 CNS
[33] = system: OVCAR-4 ovarian
[34] = system: SK-MEL-28 melanoma
[35] = system: OVCAR-3 ovarian
[36] = system: MDA-MB-435
[37] = system: TK-10 renal
[38] = system: 786-0 renal
[39] = system: OVCAR-8 ovarian
[40] = system: ACHN renal
[41] = system: HT29 colon
[42] = system: U251 CNS
[43] = system: CAKI-1 renal
[44] = system: SNB-19 CNS
[45] = system: NCI-H23 lung
[46] = system: RPMI-8226 leukemia
[47] = system: HL-60(TB) leukemia
[48] = system: MCF7 breast
[49] = system: HCT-15 colon
[50] = system: UACC-62 melanoma
[51] = system: DU-145 prostate
[52] = system: IGROV1 ovarian
[53] = system: UACC-257 melanoma
[54] = system: EKVX NSCLC
[55] = system: T-47D breast
[56] = system: HOP-62 NSCLC
[57] = system: HCC-2998 colon
[58] = system: MOLT-4 leukemia

## COC(=O)c1ccc2[nH]c(O)c(C(=Nc3ccc(N(C)C(=O)CN4CCN(C)CC4)cc3)c3ccc(OC)cc3)c2c1
[1]
  GI50: 1.35 µM
  TGI: 2.77 µM
[2]
  GI50: 0.309 µM
  TGI: 4.92 µM
[3]
  GI50: 1.66 µM
  TGI: 5.6 µM
[4]
  GI50: 1.15 µM
  TGI: 2.65 µM
[5]
  GI50: 0.756 µM
  TGI: 4.35 µM
[6]
  GI50: 1.33 µM
  TGI: 2.72 µM
[7]
  GI50: 0.724 µM
  TGI: 2.28 µM
[8]
  GI50: 1.52 µM
  TGI: 3.11 µM
[9]
  GI50: 3.7 µM
  TGI: 15.2 µM
[10]
  GI50: 0.294 µM
  TGI: 8.27 µM
[11]
  GI50: 12.5 µM
  TGI: 37.2 µM
[12]
  GI50: 5.21 µM
  TGI: 17.6 µM
[13]
  GI50: 0.228 µM
  TGI: 1.75 µM
[14]
  GI50: 0.186 µM
  TGI: 10.3 µM
[15]
  GI50: 1.25 µM
  TGI: 3.49 µM
[16]
  GI50: 0.41 µM
  TGI: 13.1 µM
[17]
  GI50: 0.664 µM
  TGI: 2.34 µM
[18]
  GI50: 0.0432 µM
  TGI: 6.45 µM
[19]
  GI50: 0.414 µM
  TGI: 11.1 µM
[20]
  GI50: 0.227 µM
  TGI: 10.1 µM
[21]
  GI50: 1.37 µM
  TGI: 4.46 µM
[22]
  GI50: 0.466 µM
  TGI: 1.82 µM
[23]
  GI50: 2.04 µM
  TGI: 7.04 µM
[24]
  GI50: 2.61 µM
  TGI: 13.6 µM
[25]
  GI50: 0.906 µM
  TGI: 18.9 µM
[26]
  GI50: 2.01 µM
  TGI: 12.1 µM
[27]
  GI50: 0.506 µM
  TGI: 2.13 µM
[28]
  GI50: 1.48 µM
  TGI: 3.76 µM
[29]
  GI50: 1.16 µM
  TGI: 7.77 µM
[30]
  GI50: 0.255 µM
  TGI: 10.2 µM
[31]
  GI50: 1.07 µM
  TGI: 2.95 µM
[32]
  GI50: 0.473 µM
  TGI: 1.76 µM
[33]
  GI50: 0.928 µM
  TGI: 3.14 µM
[34]
  GI50: 3.15 µM
  TGI: 14 µM
[35]
  GI50: 1.23 µM
  TGI: 2.83 µM
[36]
  GI50: 2.05 µM
  TGI: 14.5 µM
[37]
  GI50: 2.39 µM
  TGI: 12.4 µM
[38]
  GI50: 0.73 µM
  TGI: 2.13 µM
[39]
  GI50: 1.18 µM
  TGI: 24.6 µM
[40]
  GI50: 1.71 µM
  TGI: 10.3 µM
[41]
  GI50: 1.11 µM
  TGI: 25.2 µM
[42]
  GI50: 1.09 µM
  TGI: 2.48 µM
[43]
  GI50: 0.383 µM
  TGI: 11.1 µM
[44]
  GI50: 2.1 µM
  TGI: 10 µM
[45]
  GI50: 1.25 µM
  TGI: 3.64 µM
[46]
  GI50: 1.46 µM
  TGI: 4.4 µM
[47]
  GI50: 0.712 µM
  TGI: 3.15 µM
[48]
  GI50: 0.518 µM
  TGI: 2.49 µM
[49]
  GI50: 1.81 µM
  TGI: 6.61 µM
[50]
  GI50: 4.96 µM
  TGI: 18.6 µM
[51]
  GI50: 2.37 µM
  TGI: 11.3 µM
[52]
  GI50: 0.226 µM
  TGI: 2.6 µM
[53]
  GI50: 10.5 µM
  TGI: 22.8 µM
[54]
  GI50: 2.38 µM
  TGI: 12.4 µM
[55]
  GI50: 1.82 µM
  TGI: 18.1 µM
[56]
  GI50: 1.57 µM
  TGI: 12.4 µM
[57]
  GI50: 2.12 µM
  TGI: 10.6 µM
[58]
  GI50: 0.414 µM
  TGI: 3.62 µM

## COCn1cnc2c(=O)n(-c3ccc(C)cc3)c(=S)n(-c3ccc(C)cc3)c21
[1]
  TGI: > 100 µM
[2]
  TGI: > 100 µM
[3]
  TGI: > 100 µM
[4]
  TGI: > 100 µM
[5]
  TGI: > 100 µM
[6]
  TGI: > 100 µM
[7]
  TGI: > 100 µM
[8]
  TGI: > 100 µM
[9]
  TGI: > 100 µM
[10]
  TGI: > 100 µM
[11]
  TGI: > 100 µM
[12]
  TGI: > 100 µM
[13]
  TGI: > 100 µM
[14]
  TGI: > 100 µM
[15]
  TGI: > 100 µM
[16]
  TGI: > 100 µM
[17]
  TGI: > 100 µM
[18]
  TGI: > 100 µM
[19]
  TGI: > 100 µM
[20]
  TGI: > 100 µM
[21]
  TGI: > 100 µM
[22]
  TGI: > 100 µM
[23]
  TGI: > 100 µM
[24]
  TGI: > 100 µM
[25]
  TGI: > 100 µM
[26]
  TGI: > 100 µM
[27]
  TGI: > 100 µM
[28]
  TGI: > 100 µM
[29]
  TGI: > 100 µM
[30]
  TGI: > 100 µM
[31]
  TGI: > 100 µM
[32]
  TGI: > 100 µM
[33]
  TGI: > 100 µM
[34]
  TGI: > 100 µM
[35]
  TGI: > 100 µM
[36]
  TGI: > 100 µM
[37]
  TGI: > 100 µM
[38]
  TGI: > 100 µM
[39]
  TGI: > 100 µM
[40]
  TGI: > 100 µM
[41]
  TGI: > 100 µM
[42]
  TGI: > 100 µM
[43]
  TGI: > 100 µM
[44]
  TGI: > 100 µM
[45]
  TGI: > 100 µM
[46]
  TGI: > 100 µM
[47]
  TGI: > 100 µM
[48]
  TGI: > 100 µM
[49]
  TGI: > 100 µM
[50]
  TGI: > 100 µM
[51]
  TGI: > 100 µM
[52]
  TGI: > 100 µM
[53]
  TGI: > 100 µM
[54]
  TGI: > 100 µM
[55]
  TGI: > 100 µM
[56]
  TGI: > 100 µM
[57]
  TGI: > 100 µM
[58]
  TGI: > 100 µM
